From patent publication US20150045328A1, “DISUBSTITUTED ARYL OXY DERIVATIVES AS SPHINGOSINE-1 PHOSPHATE RECEPTORS MODULATORS” (Allergan, Inc., priority 2013, published 2015)

Target: T1, human S1P1 receptor (Homo sapiens, UniProt P21453)
T1 construct: expressed in transfected cells; membranes used
Assay: GTP γ35S binding assay for S1P1 activity
Format: biochemical
Conditions: activity potency, S1P1 receptor from GTP γ35S binding; membranes of cells stably expressing the S1P1 receptor
Method: Compounds were synthesized and tested for S1P1 activity using the GTP γ^35S binding assay. These compounds may be assessed for their ability to activate or block activation of the human S1P1 receptor in cells stably expressing the S1P1 receptor.
GTP γ^35S binding was measured in the medium containing (mM) HEPES 25, pH 7.4, MgCl2 10, NaCl 100, dithiothreitol 0.5, digitonin 0.003%, 0.2 nM GTP γ^35S, and 5 μg membrane protein in a volume of 150 μl. Test compounds were included in the concentration range from 0.08 to 5,000 nM unless indicated otherwise. Membranes were incubated with 100 μM 5′-adenylylimidodiphosphate for 30 min, and subsequently with 10 μM GDP for 10 min on ice. Drug solutions and membrane were mixed, and then reactions were initiated by adding GTP γ^35S and continued for 30 min at 25° C. Reaction mixtures were filtered over Whatman GF/B filters under vacuum, and washed three times with 3 mL of ice-cold buffer (HEPES 25, pH7.4, MgCl2 10 and NaCl 100). Filters were dried and mixed with scintillant, and counted for ^35S activity using a β-counter. Agonist-induced GTP γ^35S binding was obtained by subtracting that in the absence of agonist. Binding data were analyzed using a non-linear regression method. In case of antagonist assay, the reaction mixture contained 10 nM […] in the presence of test antagonist at concentrations ranging from 0.08 to 5000 nM.

T1 sequence (P21453 whole entry): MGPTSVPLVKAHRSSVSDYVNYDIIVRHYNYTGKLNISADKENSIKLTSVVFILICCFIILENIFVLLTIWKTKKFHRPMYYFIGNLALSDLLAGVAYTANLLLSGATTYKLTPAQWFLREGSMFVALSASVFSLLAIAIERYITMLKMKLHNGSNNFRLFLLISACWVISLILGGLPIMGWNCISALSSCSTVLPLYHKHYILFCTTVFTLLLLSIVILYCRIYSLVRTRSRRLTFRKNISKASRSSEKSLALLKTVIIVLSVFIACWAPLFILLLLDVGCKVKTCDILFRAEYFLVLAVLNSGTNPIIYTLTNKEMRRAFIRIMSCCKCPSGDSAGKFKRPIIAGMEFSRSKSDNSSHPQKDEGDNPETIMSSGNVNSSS

Compared with `CCCCCC(CCCOc1ccc(CNCCCP(=O)(O)O)cc1)Cc1ccc(C)c(C)c1` (centres unmarked) [Compound 1, {3-[(4-{[4-(3,4-Dimethylbenzyl)nonyl]oxy}benzyl)amino]propyl}phosphonic acid], `CCCCC(CCCOc1ccc(CNCCCP(=O)(O)O)cc1)Cc1ccc(C)c(C)c1` (centres unmarked) [Compound 2, {3-[(4-{[4-(3,4-Dimethylbenzyl)octyl]oxy}benzyl)amino]propyl}phosphonic acid] is 2.5-fold higher in EC50: 5.18 nM for the first, 12.9 nM for the second.

`CCCCC(CCCOc1ccc(CNCCC(=O)O)cc1)Cc1ccc(C)c(C)c1` (centres unmarked) [Compound 3, 3-[(4-{[4-(3,4-Dimethylbenzyl)octyl]oxy}benzyl)amino]propanoic acid] and `CCCCCC(CCCOc1ccc(CNCCC(=O)O)cc1)Cc1ccc(C)c(C)c1` (centres unmarked) [Compound 10, 3-[(4-{[4-(3,4-Dimethylbenzyl)nonyl]oxy}benzyl)amino]propanoic acid] are within 1.5-fold of each other in EC50: 5 nM for the first, 7.46 nM for the second.

First: CCCC(CCCOc1ccc(CNCCCP(=O)(O)O)cc1)Cc1ccc(C)c(C)c1 (centres unmarked) [Compound 4, {3-[(4-{[4-(3,4-Dimethylbenzyl)heptyl]oxy}benzyl)amino]propyl}phosphonic acid]
Second: CCC(CCCOc1ccc(CNCCCP(=O)(O)O)cc1)Cc1ccc(C)c(C)c1 (centres unmarked) [Compound 6, {3-[(4-{[4-(3,4-Dimethylbenzyl)hexyl]oxy}benzyl)amino]propyl}phosphonic acid]
The EC50 of the first is 5.6-fold higher: 120 nM for the first, 21.4 nM for the second.

Going from `CCCC(CCCOc1ccc(CNCCC(=O)O)cc1)Cc1ccc(C)c(C)c1` (centres unmarked) [Compound 5, 3-[(4-{[4-(3,4-Dimethylbenzyl)heptyl]oxy}benzyl)amino]propanoic acid] to `CCC(CCCOc1ccc(CNCCC(=O)O)cc1)Cc1ccc(C)c(C)c1` (centres unmarked) [Compound 7, 3-[(4-{[4-(3,4-Dimethylbenzyl)hexyl]oxy}benzyl)amino]propanoic acid], the EC50 rises from 4.68 nM to 11.4 nM (2.4-fold).

Compared with `CCCCC(CCCOc1c(C)cc(CNCCCP(=O)(O)O)cc1C)Cc1ccc(C)c(C)c1` (centres unmarked) [Compound 11, {3-[(4-{[4-(3,4-Dimethylbenzyl)octyl]oxy}-3,5-dimethylbenzyl)amino]propyl}phosphonic acid], `CCCCCC(CCCOc1c(C)cc(CNCCCP(=O)(O)O)cc1C)Cc1ccc(C)c(C)c1` (centres unmarked) [Compound 23, {3-[(4-{[4-(3,4-Dimethylbenzyl)nonyl]oxy}-3,5-dimethylbenzyl)amino]propyl}phosphonic acid] is 1.6-fold lower in EC50: 18.9 nM for the first, 11.9 nM for the second. The second is the more potent here.

Going from `CCCCC(CCCOc1c(C)cc(CNCCC(=O)O)cc1C)Cc1ccc(C)c(C)c1` (centres unmarked) [Compound 12, 3-[(4-{[4-(3,4-dimethylbenzyl)octyl]oxy}-3,5-dimethylbenzyl)amino]propanoic acid] to `CCCC(CCCOc1c(C)cc(CNCCC(=O)O)cc1C)Cc1ccc(C)c(C)c1` (centres unmarked) [Compound 30, 3-[(4-{[4-(3,4-Dimethylbenzyl)heptyl]oxy}-3,5-dimethylbenzyl)amino]propanoic acid], the EC50 rises from 9.84 nM to 27.1 nM (2.8-fold). The first is the more potent here.

`CCCCC(CCCOc1ccc(CNCCCP(=O)(O)O)cc1C)Cc1ccc(C)c(C)c1` (centres unmarked) [Compound 13, {3-[(4-{[4-(3,4-Dimethylbenzyl)octyl]oxy}-3-methylbenzyl)amino]propyl}phosphonic acid] and `CCCC(CCCOc1ccc(CNCCCP(=O)(O)O)cc1C)Cc1ccc(C)c(C)c1` (centres unmarked) [Compound 31, {3-[(4-{[4-(3,4-Dimethylbenzyl)heptyl]oxy}-3-methylbenzyl)amino]propyl}phosphonic acid] are within 1.5-fold of each other in EC50: 6.54 nM for the first, 7.89 nM for the second.

First: CCCCC(CCCOc1ccc(CNCCC(=O)O)cc1C)Cc1ccc(C)c(C)c1 (centres unmarked) [Compound 14, 3-[(4-{[4-(3,4-Dimethylbenzyl)octyl]oxy}-3-methylbenzyl)amino]propanoic acid]
Second: CCCC(CCCOc1ccc(CNCCC(=O)O)cc1C)Cc1ccc(C)c(C)c1 (centres unmarked) [Compound 32, 3-[(4-{[4-(3,4-Dimethylbenzyl)heptyl]oxy}-3-methylbenzyl)amino]propanoic acid]
The EC50 of the first is 5.8-fold lower: 6.02 nM for the first, 35.2 nM for the second. The first is the more potent here.

First: CCCCC(CCCOc1ccc(CNCCCP(=O)(O)O)cc1Br)Cc1ccc(C)c(C)c1 (centres unmarked) [Compound 15, {3-[(3-Bromo-4-{[4-(3,4-dimethylbenzyl)octyl]oxy}benzyl)amino]propyl}phosphonic acid]
Second: CCCCC(CCCOc1ccc(CNCCCP(=O)(O)O)cc1Cl)Cc1ccc(C)c(C)c1 (centres unmarked) [Compound 17, {3-[(3-Chloro-4-{[4-(3,4-dimethylbenzyl)octyl]oxy}benzyl)amino]propyl}phosphonic acid]
The EC50 of the first is 1.7-fold higher: 2.29 nM for the first, 1.34 nM for the second. The second is the more potent here.

Compared with `CCCCC(CCCOc1ccc(CNCCC(=O)O)cc1Br)Cc1ccc(C)c(C)c1` (centres unmarked) [Compound 16, 3-[(3-Bromo-4-{[4-(3,4-dimethylbenzyl)octyl]oxy}benzyl)amino]propanoic acid], `CCCCC(CCCOc1ccc(CNCCC(=O)O)cc1Cl)Cc1ccc(C)c(C)c1` (centres unmarked) [Compound 18, 3-[(3-Chloro-4-{[4-(3,4-dimethylbenzyl)octyl]oxy}benzyl)amino]propanoic acid] is 3.4-fold lower in EC50: 4.19 nM for the first, 1.25 nM for the second.

Compared with `CCCCC(CCCOc1c(F)cc(CNCCCP(=O)(O)O)cc1OC)Cc1ccc(C)c(C)c1` (centres unmarked) [Compound 19, {3-[(4-{[4-(3,4-dimethylbenzyl)octyl]oxy}-3-fluoro-5-methoxybenzyl)amino]propyl}phosphonic acid], `CCCCC(CCCOc1c(F)cc(CNCCC(=O)O)cc1OC)Cc1ccc(C)c(C)c1` (centres unmarked) [Compound 20, 3-[(4-{[4-(3,4-Dimethylbenzyl)octyl]oxy}-3-fluoro-5-methoxybenzyl)amino]propanoic acid] is 8.2-fold higher in EC50: 0.33 nM for the first, 2.7 nM for the second. The first is the more potent here.

Going from `CCCCC(CCCOc1ccc(CNCCCP(=O)(O)O)cc1F)Cc1ccc(C)c(C)c1` (centres unmarked) [Compound 21, {3-[(4-{[4-(3,4-Dimethylbenzyl)octyl]oxy}-3-fluorobenzyl)amino]propyl}phosphonic acid] to `CCCCCC(CCCOc1ccc(CNCCCP(=O)(O)O)cc1Cl)Cc1ccc(C)c(C)c1` (centres unmarked) [Compound 25, {3-[(3-Chloro-4-{[4-(3,4-dimethylbenzyl)nonyl]oxy}benzyl)amino]propyl}phosphonic acid], the EC50 rises from 2.35 nM to 4.83 nM (2.1-fold). The first is the more potent here.

`CCCCC(CCCOc1ccc(CNCCC(=O)O)cc1F)Cc1ccc(C)c(C)c1` (centres unmarked) [Compound 22, 3-[(4-{[4-(3,4-Dimethylbenzyl)octyl]oxy}-3-fluorobenzyl)amino]propanoic acid] and `CCCCCC(CCCOc1ccc(CNCCC(=O)O)cc1Cl)Cc1ccc(C)c(C)c1` (centres unmarked) [Compound 26, 3-[(3-Chloro-4-{[4-(3,4-dimethylbenzyl)nonyl]oxy}benzyl)amino]propanoic acid] are within 1.5-fold of each other in EC50: 15.7 nM for the first, 11.8 nM for the second.

First: CCCC(CCCOc1ccc(CNCCCP(=O)(O)O)cc1Cl)Cc1ccc(C)c(C)c1 (centres unmarked) [Compound 27, {3-[(3-chloro-4-{[4-(3,4-dimethylbenzyl)heptyl]oxy}benzyl)amino]propyl}phosphonic acid]
Second: CCCC(CCCOc1ccc(CNCCC(=O)O)cc1Cl)Cc1ccc(C)c(C)c1 (centres unmarked) [Compound 28, 3-[(3-Chloro-4-{[4-(3,4-dimethylbenzyl)heptyl]oxy}benzyl)amino]propanoic acid]
The EC50 of the first is 5-fold lower: 10.9 nM for the first, 54 nM for the second. The first is the more potent here.

For `CCCC(CCCOc1c(C)cc(CNCCCP(=O)(O)O)cc1C)Cc1ccc(C)c(C)c1` (centres unmarked) [Compound 29, {3-[(4-{[4-(3,4-Dimethylbenzyl)heptyl]oxy}-3,5-dimethylbenzyl)amino]propyl}phosphonic acid], the EC50 was 328 nM.
